Laboratory results taken from PubChem BioAssay (NCI).
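48-hour exposure; five concentrations; linearly interpolated endpoints. The concentration for full growth arrest is given as TGI.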

Columns and labels:
Assay in all cases: inhibition of tumour cell growth, NCI panel, 48 h
NCI/ADR-RES ovarian = system: NCI/ADR-RES ovarian
786-0 renal = system: 786-0 renal
HCT-15 colon = system: HCT-15 colon
ACHN renal = system: ACHN renal
RPMI-8226 leukemia = system: RPMI-8226 leukemia
UACC-257 melanoma = system: UACC-257 melanoma
CCRF-CEM leukemia = system: CCRF-CEM leukemia
K-562 leukemia = system: K-562 leukemia
OVCAR-4 ovarian = system: OVCAR-4 ovarian
COLO 205 colon = system: COLO 205 colon
U251 CNS = system: U251 CNS
HCC-2998 colon = system: HCC-2998 colon
MCF7 breast = system: MCF7 breast
SF-539 CNS = system: SF-539 CNS
SF-268 CNS = system: SF-268 CNS

| SMILES | TGI (NCI/ADR-RES ovarian) [µM] | TGI (786-0 renal) [µM] | TGI (HCT-15 colon) [µM] | TGI (ACHN renal) [µM] | TGI (RPMI-8226 leukemia) [µM] | TGI (UACC-257 melanoma) [µM] | TGI (CCRF-CEM leukemia) [µM] | TGI (K-562 leukemia) [µM] | TGI (OVCAR-4 ovarian) [µM] | TGI (COLO 205 colon) [µM] | TGI (U251 CNS) [µM] | TGI (HCC-2998 colon) [µM] | TGI (MCF7 breast) [µM] | TGI (SF-539 CNS) [µM] | TGI (SF-268 CNS) [µM] |
| --- | --- | --- | --- | --- | --- | --- | --- | --- | --- | --- | --- | --- | --- | --- | --- |
| CS(=O)(=O)C(C#N)c1nc2ccccc2nc1Cl (stereo not given) | > 100 | > 100 | > 100 | > 100 | > 100 | > 100 | > 100 | > 100 | > 100 | > 100 | > 100 | > 100 | > 100 | > 65.9 | > 100 |
| COc1cc2c(cc1O)c(O)cc1c3cc(OC)c(OC)cc3c[n+](C)c21 | > 100 | > 100 | > 100 | > 100 | > 100 | > 100 | > 100 | > 80.5 | > 100 | > 100 | 4.57 | > 100 | > 100 | > 100 | > 100 |
| Nc1ccccc1CCN1CCN(CCCc2ccccc2)CC1 | > 100 | > 100 | > 100 | > 100 | 75.5 | > 100 | > 100 | > 100 | > 100 | 55 | > 100 | 39 | > 100 | > 100 | > 100 |
| O=C1C2=Cc3ccccc3OC2(O)Oc2cc3ccccc3cc21 (stereo not given) | > 100 | > 100 | > 100 | > 100 | > 100 | > 100 | > 100 | > 100 | > 100 | > 100 | > 100 | 74.9 | > 100 | 79.2 | > 100 |
| Cc1cc(C)nc(NS(=O)(=O)c2ccc(Nc3c4ccccc4nc4ccc(C(=O)Nc5ccc(S(N)(=O)=O)cc5)cc34)cc2)n1 | > 100 | > 100 | > 100 | > 100 | > 100 | > 100 | > 100 | > 100 | > 100 | > 100 | > 100 | > 100 | > 100 | > 100 | > 100 |
| OC(CNc1ccccn1)c1ccccc1 (stereo not given) | > 100 | > 100 | > 100 | > 100 | > 100 | > 100 | > 100 | > 100 | > 100 | > 100 | > 100 | > 100 | > 100 | > 100 | > 100 |
| COC(=O)c1csc([C@@H](OC(=O)[C@H](C)[C@H](CCCC(C)(Cl)Cl)OC(=O)c2csc([C@H](O)CO)n2)C(C)C)n1 | 45.4 | 28.3 | 31 | 25.8 | 34.1 | 23.1 | 34.8 | 33.6 | 24.5 | 32.3 | 32 | 22.2 | 35 | 8.62 | 34.8 |
| CCCCC1(NN=C2CCCCC2)C(=O)N(c2ccccc2)N(c2ccccc2)C1=O | > 100 | > 100 | > 100 | > 100 | > 100 | > 100 | 40.7 | 64.9 | > 100 | > 100 | > 100 | > 100 | > 100 | > 100 | > 100 |
| Cc1ccc(C(=O)O)c(/C=C2\Cc3ccc(C)cc3C2=O)c1 | > 100 | > 100 | > 100 | > 100 | 53.3 | > 100 | > 100 | > 100 | > 100 | > 100 | > 100 | > 100 | > 100 | 49.3 | > 100 |
| O=c1oc2ccccc2c(Nc2ccc3c(c2)Sc2ccccc2O3)c1[N+](=O)[O-] | > 100 | 53.1 | > 100 | 44.7 | 37.8 | 55.7 | 81 | 57.9 | > 100 | 32.1 | 41.7 | 39.9 | 43 | 85 | > 100 |
| CN(/N=C/c1ccc(C(=O)O)cc1)C1=NCCCCN1 | > 100 | > 100 | > 100 | > 100 | > 100 | > 100 | > 100 | > 100 | > 100 | > 100 | > 100 | > 100 | > 100 | > 100 | > 100 |
| CS(=O)(=O)Nc1ccc2ccccc2c1-c1c(NS(C)(=O)=O)ccc2ccccc12 | > 25 | > 25 | > 25 | > 25 | > 25 | > 25 | > 25 | > 25 | > 25 | > 25 | > 25 | > 25 | > 25 | > 25 | > 25 |
| O=c1[nH]c2cc(C(F)(F)F)ccc2nc1C(F)(F)F | > 100 | > 100 | > 100 | > 100 | > 100 | 90.6 | > 100 | > 100 | > 100 | > 100 | > 100 | > 100 | > 100 | 94.6 | > 100 |
| N#Cc1c(-c2ccc(Cl)cc2)c2c(n(C3OC(CO)C(O)C(O)C3O)c1=S)CCCC2 (stereo not given) | > 100 | > 100 | > 100 | > 100 | > 100 | > 100 | > 100 | > 100 | > 100 | > 100 | > 100 | > 100 | > 100 | > 100 | > 100 |
| Cc1nc2ccc(Br)cc2c(=O)n1-c1nnc(C(C)(C)C)s1 | > 10 | > 10 | > 10 | > 10 | > 10 | > 10 | > 10 | > 10 | > 10 | > 10 | > 10 | > 10 | > 10 | > 10 | > 10 |
